Measured values reported in patent US12357596B2, “Compounds for prevention and treatment of obesity and related disorders” (ABREXA PHARMACEUTICALS, INC., priority 2019, dated 2025).

Assay: 28-day once-daily oral gavage toxicity study with 14-day recovery (body weight, food consumption, clinical and anatomic pathology)
Assay type: in vivo
Details: for Decrease of group mean food consumption compared to Group 1 controls: Days 21 to 28
Method: J147 or vehicle was administered once daily to Sprague-Dawley rats via oral gavage for 28 consecutive days at a daily dose of 0, 30, 100 or 300 mg/kg. J174 was prepared in a vehicle formulation comprising 5% ethanol, 5% DMSO and 90% corn oil (v/v/v). Certified rodent diet and water was available ad libitum. Groups 1-4 contained 10 animals/sex/group. Groups 1 (control) and 4 (high dose) also included an additional 5 animals/sex/group for use as recovery animals. The recovery animals were maintained on study for a 14-day postdosing recovery period. Animals in Groups 1-4 were monitored for morbidity and mortality, clinical signs, detailed clinical observations, body weight, food consumption, ophthalmologic parameters, neurobehavioral assessment consisting of a Functional Observational Battery (FOB) and a motor activity test, hematology, coagulation, serum chemistry, and urinalysis parameters. Postmortem assessment included necropsy, measurement of selected organ weights, and microscopic evaluation of a standard set of tissues. Plasma samples for bioanalysis were collected on Days 1 and 28 from satellite toxicokinetic animals in Groups 5 through 8. Animals in these groups were euthanized following the last blood sampling and carcasses were discarded without examination. The study protocol is shown below in Table 1.

[1] = Group 2F: female rats, 30 mg/kg/day
[2] = Group 2M: male rats, 30 mg/kg/day
[3] = Group 3F: female rats, 100 mg/kg/day
[4] = Group 3M: male rats, 100 mg/kg/day
[5] = Group 4F: female rats, 300 mg/kg/day
[6] = Group 4M: male rats, 300 mg/kg/day
[7] = female rats, 30 mg/kg/day, Day 7 → 14
[8] = female rats, 30 mg/kg/day, Day 14 → 21
[9] = female rats, 30 mg/kg/day, Day 21 → 28
[10] = female rats, 30 mg/kg/day, Day −1 → 7
[11] = female rats, 100 mg/kg/day, Day 7 → 14
[12] = female rats, 100 mg/kg/day, Day 14 → 21
[13] = female rats, 100 mg/kg/day, Day 21 → 28
[14] = female rats, 100 mg/kg/day, Day 28
[15] = female rats, 100 mg/kg/day, Day −1 → 7
[16] = female rats, 300 mg/kg/day, Day 7 → 14
[17] = female rats, 300 mg/kg/day, Day 14 → 21
[18] = female rats, 300 mg/kg/day, Day 21 → 28
[19] = female rats, 300 mg/kg/day, Day 28
[20] = female rats, 300 mg/kg/day, Day −1 → 7
[21] = male rats, 30 mg/kg/day, Day 7 → 14

COc1cccc(/C=N/N(C(=O)C(F)(F)F)c2ccc(C)cc2C)c1 [J147]
Terminal Body Weight % Diff from Control [1]: −2.4% | Terminal Body Weight (mean) [1]: 238.10 g | Terminal Body Weight % Diff from Control [2]: +1.4% | Terminal Body Weight (mean) [2]: 443.50 g | Terminal Body Weight % Diff from Control [3]: −7.6% | Terminal Body Weight (mean) [3]: 225.43 g | Terminal Body Weight % Diff from Control [4]: −5.69% | Terminal Body Weight (mean) [4]: 412.50 g | Terminal Body Weight % Diff from Control [5]: −14.23% | Terminal Body Weight (mean) [5]: 209.24 g | Terminal Body Weight % Diff from Control [6]: −17.91% | Terminal Body Weight (mean) [6]: 359.05 g | NOAEL at 28 days (both sexes, Sprague-Dawley, rat, in vivo, po): 30 mg/kg/day | Increase in platelet counts (female rats, 30 mg/kg/day): 3.8% | Mean Bodyweight (female rats, 30 mg/kg/day, Day 7): 220.64 g | Food Mean Consumption [7]: 14.89 g/animal/day | Mean Bodyweight Gain [7]: 13.06 g | Mean Bodyweight (female rats, 30 mg/kg/day, Day 14): 233.70 g | Food Mean Consumption [8]: 15.47 g/animal/day | Mean Bodyweight Gain [8]: 9.45 g | Mean Bodyweight (female rats, 30 mg/kg/day, Day 21): 243.15 g | Food Mean Consumption [9]: 15.12 g/animal/day | Mean Bodyweight Gain [9]: 5.08 g | Mean Bodyweight (female rats, 30 mg/kg/day, Day 28): 248.23 g | Mean Bodyweight (female rats, 30 mg/kg/day, Day −1 (pre-dose)): 203.02 g | Food Mean Consumption [10]: 15.49 g/animal/day | Mean Bodyweight Gain [10]: 17.62 g | Mean Bodyweight Gain (female rats, 30 mg/kg/day, Day −1 → 28): 45.21 g | Mean Bodyweight (female rats, 30 mg/kg/day, Day −3 (pre-dose)): 200.70 g | Mean Bodyweight (female rats, 100 mg/kg/day, Day 7): 215.78 g | Food Mean Consumption [11]: 13.85 d^4 g/animal/day | Mean Bodyweight Gain [11]: 9.99 d^3 g | Mean Bodyweight (female rats, 100 mg/kg/day, Day 14): 225.77 d^2 g | Food Mean Consumption [12]: 14.70 g/animal/day | Mean Bodyweight Gain [12]: 7.02 g | Mean Bodyweight (female rats, 100 mg/kg/day, Day 21): 232.79 d^2 g | Food Mean Consumption [13]: 13.98 g/animal/day | Mean Bodyweight Gain [13]: 1.60 g | Decrease of group mean body weight compared to Group 1 controls [14]: 6.9% | Mean Bodyweight [14]: 234.39 g | Mean Bodyweight (female rats, 100 mg/kg/day, Day −1 (pre-dose)): 206.05 g | Food Mean Consumption [15]: 14.33 dd^3 g/animal/day | Mean Bodyweight Gain [15]: 9.73 d^3 g | Mean Bodyweight Gain (female rats, 100 mg/kg/day, Day −1 → 28): 28.34 dd^4 g | Mean Bodyweight (female rats, 100 mg/kg/day, Day −3 (pre-dose)): 201.20 g | Decrease of group mean food consumption compared to Group 1 controls (female rats, 100 mg/kg/day): 8.6% | Food Mean Consumption (female rats, 300 mg/kg/day for 28 days, Day 28 → 35 (recovery)): 22.30 d^4 g/animal/day | Mean Bodyweight Gain (female rats, 300 mg/kg/day for 28 days, Day 28 → 42 (recovery)): 32.82 g | Mean Bodyweight (female rats, 300 mg/kg/day for 28 days, Day 35 (recovery)): 249.62 g | Food Mean Consumption (female rats, 300 mg/kg/day for 28 days, Day 35 → 42 (recovery)): 20.22 g/animal/day | Mean Bodyweight (female rats, 300 mg/kg/day for 28 days, Day 42 (recovery)): 258.24 g | Mean Bodyweight (female rats, 300 mg/kg/day, Day 7): 214.74 g | Food Mean Consumption [16]: 13.81 dd^3 g/animal/day | Mean Bodyweight Gain [16]: 8.25 dd^4 g | Mean Bodyweight (female rats, 300 mg/kg/day, Day 14): 222.99 dd^3 g | Food Mean Consumption [17]: 14.73 g/animal/day | Mean Bodyweight Gain [17]: 5.03 dd^4 g | Mean Bodyweight (female rats, 300 mg/kg/day, Day 21): 228.03 dd^3 g | Food Mean Consumption [18]: 12.91 d^4 g/animal/day | Mean Bodyweight Gain [18]: −7.49 d^3 g | Decrease of group mean body weight compared to Group 1 controls [19]: 12.4% | Mean Bodyweight [19]: 220.53 dd^3 g | Mean Bodyweight (female rats, 300 mg/kg/day, Day −1 (pre-dose)): 207.85 g | Food Mean Consumption [20]: 13.75 dd^3 g/animal/day | Mean Bodyweight Gain [20]: 6.89 dd^4 g | Mean Bodyweight Gain (female rats, 300 mg/kg/day, Day −1 → 28): 12.68 dd^4 g | Mean Bodyweight (female rats, 300 mg/kg/day, Day −3 (pre-dose)): 200.70 g | Decrease of group mean food consumption compared to Group 1 controls (female rats, 300 mg/kg/day): 15.6% | Group mean weight gain from Day −1 to 28 (female rats, Group 2 (30 mg/kg/day)): 45 grams | Group mean weight gain from Day −1 to 28 (female rats, Group 3 (100 mg/kg/day)): 28 grams | Group mean weight gain from Day −1 to 28 (female rats, Group 4 (300 mg/kg/day)): 13 grams | Mean Bodyweight (male rats, 30 mg/kg/day, Day 7): 338.91 g | Mean Bodyweight Gain [21]: 52.38 g | Mean Food Consumption [21]: 24.85 | Mean Bodyweight (male rats, 30 mg/kg/day, Day 14): 391.29 g
